Columns and labels:
Test in all cases: relative viability (nuclei count vs DMSO), 5 days (fraction); higher = more cells survive
[1] = compound: COc1cc(Nc2ncc(F)c(Nc3ccc4c(n3)NC(=O)C(C)(C)O4)n2)cc(OC)c1OC [R406]
Procedure, shortened: (§1)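 Only plates meeting two conditions passed: control CV below 25% and at least one doubling. Lung cancer cell lines, kept overnight at 37 °C in 1536-well plates, were pinned with five library-drug doses (not always all listed) √10 apart on vehicle-anchored plates and grown 5 days without medium change. A one-step fix, permeabilisation and Hoechst stain preceded 4× imaging and MetaXpress nuclear counting. Viability equals treated-well nuclei divided by vehicle-well nuclei, as the median over plates.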

[2] = compound: O=C(/C=C/c1cccnc1)NCCCCC1CCN(C(=O)c2ccccc2)CC1 [Daporinad]
Procedure, shortened: as §1

[3] = compound: COc1cc(Nc2ncc(F)c(Nc3ccc4c(n3)NC(=O)C(C)(C)O4)n2)cc(OC)c1OC [R406] + CC1(C)CCC(c2ccc(Cl)cc2)=C(CN2CCN(c3ccc(C(=O)NS(=O)(=O)c4ccc(N[C@H](CCN5CCOCC5)CSc5ccccc5)c(S(=O)(=O)C(F)(F)F)c4)cc3)CC2)C1 [Navitoclax] (partner 0.5 µM)
Procedure, shortened: (§2)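 Relative viability is defined as nuclei in treated wells over nuclei in vehicle wells. Duplicate plates were run and medians reported. Lung cancer cell lines in 1536-well plates were dosed by pin tool one day after seeding, with one drug or with a fixed anchor-drug dose plus five library-drug doses (not always all listed) in √10 steps, and nuclei were counted after 5 days.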

[4] = compound: COc1cc(Nc2ncc(F)c(Nc3ccc4c(n3)NC(=O)C(C)(C)O4)n2)cc(OC)c1OC [R406] + COc1cc2c(Oc3ccc(NC(=O)C4(C(=O)Nc5ccc(F)cc5)CC4)cc3F)ccnc2cc1OCCCN1CCOCC1 [Foretinib] (partner 0.25 µM)
Procedure, shortened: as §2

Cell Line	relative viability ([1]; 0.08 µM)	relative viability ([1]; 0.253 µM)	relative viability ([1]; 0.8 µM)	relative viability ([1]; 2.53 µM)	relative viability ([1]; 8 µM)	relative viability ([2]; 0.0005 µM)	relative viability ([2]; 0.001581 µM)	relative viability ([2]; 0.005 µM)	relative viability ([2]; 0.01581 µM)	relative viability ([3]; first compound 0.08 µM)	relative viability ([3]; first compound 0.253 µM)	relative viability ([3]; first compound 0.8 µM)	relative viability ([3]; first compound 2.53 µM)	relative viability ([3]; first compound 8 µM)	relative viability ([4]; first compound 0.08 µM)	relative viability ([4]; first compound 0.253 µM)	relative viability ([4]; first compound 0.8 µM)	relative viability ([4]; first compound 2.53 µM)	relative viability ([4]; first compound 8 µM)
NCI-H1395	1.01	1.05	1.02	0.713	0.635	0.88	1.09	1.09	0.969	1.18	1.18	1.49	0.881	0.947	1.03	1.22	1.03	0.736	0.632
NCI-H441	0.903	1.16	1.31	0.424	0.611	0.898	1.13	1.18	1.07	–	0.584	0.818	–	0.446	0.863	1.13	1.18	0.718	0.406
LU99A	0.984	0.983	1.22	0.796	0.824	0.975	1.09	1.08	0.966	0.761	0.72	1.11	–	0.229	0.801	0.794	0.914	0.588	0.345
NCI-H1355	0.977	1.13	1.11	0.626	0.61	0.968	1.13	1.14	1.03	1.05	0.94	1.08	0.542	0.648	0.973	1.09	1.15	0.833	0.691
HCC-78	0.953	1.08	1.06	0.708	0.48	0.81	0.938	1.06	1.12	0.729	0.899	0.876	0.508	0.43	0.562	0.602	0.642	0.57	0.56
HCC-15	0.919	1.23	1.17	0.81	0.629	0.967	1.15	1.14	1.05	0.732	0.77	0.781	–	0.509	1.07	1.12	1.19	1.01	0.643
EKVX	0.928	1.12	1.1	0.855	0.722	0.933	0.95	0.974	1.14	0.814	1.03	0.932	0.77	0.521	0.79	1	0.821	0.567	0.609
NCI-H2087	1.05	1.16	1.23	0.428	0.851	0.906	1.16	1.22	1.02	1.03	0.882	1.05	1.06	0.694	1.2	1.05	1.04	–	0.609
LK-2	0.86	1.22	1.09	0.682	0.431	0.909	1.18	0.781	0.283	0.726	1.06	0.889	0.527	0.455	1.14	1.45	1.1	0.888	0.344
NCI-H1437	0.994	1.08	1.06	0.884	0.622	0.891	1.01	1.01	0.99	1.1	1.16	1.1	0.997	0.725	1.22	1.3	1.26	1.27	1.34
COR-L23	0.953	1.17	1.16	0.901	0.592	1.02	1.04	0.908	0.275	0.951	1.04	1.1	0.836	0.451	0.925	1.18	1.12	0.931	0.665
SK-MES-1	0.989	1.05	1.06	0.648	0.322	0.978	1.05	1.12	1.03	1.22	1.18	1.31	0.817	0.678	0.892	0.921	0.976	0.49	0.396
PC-14	0.968	1.18	1.09	0.759	0.601	0.951	1.08	1.08	0.871	1.01	1.05	1.04	0.984	0.836	0.919	0.941	0.97	0.875	0.635
A549	0.898	1.02	1.1	0.857	0.518	1.03	1.05	0.944	0.903	0.932	1.2	1.26	1.31	0.675	0.961	1	0.94	0.959	0.396
A-427	0.974	1.23	1.14	0.708	0.639	0.952	1.12	0.982	0.602	0.912	1.02	0.981	0.572	0.78	1.09	1.35	1.24	0.983	0.814
LCLC-97TM1	0.885	1.18	0.964	0.804	0.632	0.948	1.15	1.07	0.941	0.375	0.511	0.519	0.254	0.462	0.89	0.963	0.965	0.935	0.327
NCI-H1703	0.966	0.924	1.21	0.238	0.172	1.03	1.2	1.2	0.934	1.17	1.05	1.23	0.189	0.149	0.346	0.327	0.323	0.228	0.218

— the supplement of paper PMC10307832
